“And” between values parts separate entries of the source, which are not always exact repeats. Identical values can stand only once. Marks after values point to notes of the source that are not given here. Square brackets hold non-standard residues; d marks the D form. Peptide text beside a SMILES is read from it. * marks the point of attachment. Dolaproine = CO[C@@H]([C@@H]1CCCN1)[C@@H](C)C(=O)O; Dil = CC[C@H](C)[C@H](NC)[C@@H](CC(=O)O)OC; X1 = C[C@@H](N*)[C@@H](O)c1ccccc1; NMeV = CN[C@H](C(=O)O)C(C)C
Test system: NCI-N87 (ATCC CRL-5822) human gastric carcinoma
Assay: Xenograft tumor model of human gastric carcinoma NCI-N87 in female nu/nu mice: tumor volume, T/C, TGI
Type: in vivo, mouse
Details: for Tumor Volume (mm^3), individual animals / Tumor Volume, individual animal / Tumor Volume, individual mouse: 0.191 mg/kg; for Tumor Volume, individual mouse: individual animals
Protocol: In a xenograft tumor model of human gastric carcinoma, viable NCI-N87 (ATCC CRL-5822) cells were subcutaneously (SC) implanted (2.5×10^6 cells/mL with matrigel (1:1) at 0.2 mL/mouse) into the right flank of female nu/nu mice. Tumor implanted mice were divided into seven treatment groups, each group containing eight animals, and one group containing five animals, and dose administrations were initiated one day after cell implantation (denoted as Day 1).
Viable human gastric carcinoma NCI-N87 (ATCC CRL-5822) cell line was purchased and cultured in Eurofins Panlabs Taiwan, Ltd. The cells were cultured in RPMI-1640 medium containing 10% fetal bovine serum (FBS) at 37° C. in 5% CO2 incubator and implanted subcutaneously in the right flank of each mouse.
Female nude (nu/nu) mice aged 5-6 weeks obtained from BioLasco Taiwan (under Charles River Laboratories Licensee) were used. The animals were housed in individually ventilated cages (IVC, 36 Mini Isolator system). The allocation for 3 animals was 27×20×14 in cm. All animals were maintained in a hygienic environment under controlled temperature (20-24° C.) and humidity (30%-70%) with 12-hour light/dark cycle. Free access to standard lab diet [MFG (Oriental Yeast Co., Ltd., Japan)] and autoclaved tap water in bottles were granted. All aspects of this work including housing, experimentation, and animal disposal were performed in general accordance with the “Guide for the Care and Use of Laboratory Animals: Eighth Edition” (National Academies Press, Washington, D.C., 2011) in our AAALAC-accredited laboratory animal facility. In addition, the animal care and use protocol was reviewed and approved by the IACUC at Eurofins Panlabs Taiwan, Ltd.
The tumor volumes, body weights, mortality, and signs of overt toxicity were monitored and recorded twice weekly for 100 days. Tumor growth inhibition was calculated as T/C (treatment/control)×100%. A T/C value≤42% compared to that of the vehicle control group was considered significant anti-tumor activity. Two-way ANOVA followed by Bonferroni test was used to ascertain the statistically significant significance of groups compared to respective vehicle control (*p<0.05).

[1] = Day 1, 0.191 mg/kg × 4 IP once weekly
[2] = Day 4, 0.191 mg/kg × 4 IP once weekly
[3] = Day 8, 0.191 mg/kg × 4 IP once weekly
[4] = Day 11, 0.191 mg/kg × 4 IP once weekly
[5] = Day 15, 0.191 mg/kg × 4 IP once weekly
[6] = Day 18, 0.191 mg/kg × 4 IP once weekly
[7] = Day 22, 0.191 mg/kg × 4 IP once weekly
[8] = Day 25, 0.191 mg/kg × 4 IP once weekly
[9] = Day 29, 0.191 mg/kg × 4 IP once weekly
[10] = Day 32, 0.191 mg/kg × 4 IP once weekly
[11] = Day 36, 0.191 mg/kg × 4 IP once weekly
[12] = Day 39, 0.191 mg/kg × 4 IP once weekly
[13] = Day 43, 0.191 mg/kg × 4 IP once weekly
[14] = Day 46, 0.191 mg/kg × 4 IP once weekly
[15] = Day 50, 0.191 mg/kg × 4 IP once weekly
[16] = Day 53, 0.191 mg/kg × 4 IP once weekly

SMILES: CC[C@H](C)[C@@H]([C@@H](CC(=O)N1CCC[C@H]1[C@H](OC)[C@@H](C)C(=O)N[C@H](C)[C@@H](O)c1ccccc1)OC)N(C)C(=O)[C@@H](NC(=O)[C@@H](NC)C(C)C)C(C)C [MMAE, monomethyl auristatin E] (H-[NMeV]V[Dil][Dolaproine]-X1)
- maximum percent TGI (0.191 mg/kg IP once weekly for four weeks, Day 53): 53%
- anti-tumor activity (in words) (0.191 mg/kg IP once weekly for four weeks, over the course of the study): moderate anti-tumor activity
- Tumor Volume (mm^3), Mean [1]: 96 mm^3
- Tumor Volume (mm^3), individual animals [1]: 61 mm^3 and 89 mm^3 and 83 mm^3 and 88 mm^3 (2×) and 125 mm^3 and 110 mm^3 and 121 mm^3
- % T/C [2]: 88%
- % TGI [2]: 12%
- Tumor Volume (mm^3), Mean [2]: 109 mm^3
- Tumor Volume (mm^3), individual animals [2]: 106 mm^3 and 102 mm^3 and 115 mm^3 (3×) and 104 mm^3 and 109 mm^3
- % T/C [3]: 83%
- % TGI [3]: 17%
- Tumor Volume (mm^3), Mean [3]: 122 mm^3
- Tumor Volume (mm^3), individual animals [3]: 117 mm^3 and 142 mm^3 and 127 mm^3 and 115 mm^3 and 110 mm^3 and 125 mm^3 and 119 mm^3
- % T/C [4]: 59%
- % TGI [4]: 41%
- Tumor Volume (mm^3), Mean [4]: 165 mm^3
- Tumor Volume (mm^3), individual animals [4]: 162 mm^3 and 158 mm^3 and 137 mm^3 and 169 mm^3 and 174 mm^3 and 187 mm^3 and 166 mm^3
- % T/C [5]: 60%
- % TGI [5]: 40%
- Tumor Volume (mm^3), Mean [5]: 189 mm^3
- Tumor Volume (mm^3), individual animals [5]: 153 mm^3 and 189 mm^3 (2×) and 178 mm^3 and 231 mm^3 and 175 mm^3 and 208 mm^3
- % T/C [6]: 57%
- % TGI [6]: 43%
- Tumor Volume (mm^3), Mean [6]: 218 mm^3
- Tumor Volume (mm^3), individual animals [6]: 152 mm^3 and 213 mm^3 and 234 mm^3 and 255 mm^3 and 231 mm^3 and 228 mm^3 and 211 mm^3
- % T/C [7]: 54%
- % TGI [7]: 46%
- Tumor Volume (mm^3), Mean [7]: 252 mm^3
- Tumor Volume (mm^3), individual animals [7]: 144 mm^3 and 201 mm^3 and 246 mm^3 and 303 mm^3 and 252 mm^3 and 322 mm^3 and 296 mm^3
- % T/C [8]: 53%
- % TGI [8]: 47%
- Tumor Volume (mm^3), Mean [8]: 277 mm^3
- Tumor Volume (mm^3), individual animals [8]: 146 mm^3 and 216 mm^3 and 259 mm^3 and 356 mm^3 and 315 mm^3 and 353 mm^3 and 296 mm^3
- % T/C [9]: 59%
- % TGI [9]: 41%
- Tumor Volume, Mean [9]: 371* mm^3
- Tumor Volume, individual animal [9]: 162 mm^3 and 277 mm^3 and 399 mm^3 and 406 mm^3 and 439 mm^3 and died and 525 mm^3 and 387 mm^3
- % T/C [10]: 54%
- % TGI [10]: 46%
- Tumor Volume, Mean [10]: 389* mm^3
- Tumor Volume, individual animal [10]: 160 mm^3 and 318 mm^3 and 397 mm^3 and 385 mm^3 and 446 mm^3 and died and 584 mm^3 and 432 mm^3
- % T/C [11]: 50%
- % TGI [11]: 50%
- Tumor Volume, Mean [11]: 406* mm^3
- Tumor Volume, individual animal [11]: 94 mm^3 and 345 mm^3 and 390 mm^3 and 389 mm^3 and 506 mm^3 and died and 658 mm^3 and 459 mm^3
- % T/C [12]: 47%
- % TGI [12]: 53%
- Tumor Volume, Mean [12]: 431* mm^3
- Tumor Volume, individual animal [12]: 94 mm^3 and 385 mm^3 and 407 mm^3 and 442 mm^3 and 530 mm^3 and died and 671 mm^3 and 487 mm^3
- % T/C [13]: 48%
- % TGI [13]: 52%
- Tumor Volume, Mean [13]: 477* mm^3
- Tumor Volume, individual animal [13]: 97 mm^3 and 414 mm^3 and 429 mm^3 and 489 mm^3 and 581 mm^3 and died and 780 mm^3 and 549 mm^3
- % T/C [14]: 51%
- % TGI [14]: 49%
- Tumor Volume, Mean [14]: 555* mm^3
- Tumor Volume, individual animal [14]: 91 mm^3 and 606 mm^3 and 535 mm^3 and 495 mm^3 and 719 mm^3 and died and 878 mm^3 and 561 mm^3
- % T/C [15]: 49%
- % TGI [15]: 51%
- Tumor Volume, Mean [15]: 589* mm^3
- Tumor Volume, individual animal [15]: 89 mm^3 and 623 mm^3 and 569 mm^3 and 550 mm^3 and 766 mm^3 and died and 936 mm^3 and 590 mm^3
- % T/C [16]: 47%
- % TGI [16]: 53%
- Tumor Volume, Mean [16]: 639* mm^3
- Tumor Volume, individual animal [16]: 88 mm^3 and 682 mm^3 and 590 mm^3 and 581 mm^3 and 816 mm^3 and died and 1094 mm^3 and 620 mm^3
- Tumor Volume, Mean (Day 57, 0.191 mg/kg × 4 IP (Once weekly), group mean): 676 mm^3
- Tumor Volume, individual mouse (Day 57, 0.191 mg/kg × 4 IP (Once weekly)): 85 mm^3 and 694 mm^3 and 663 mm^3 and 627 mm^3 and 870 mm^3 and 1141 mm^3 and 650 mm^3
- Tumor Volume, Mean (Day 60, 0.191 mg/kg × 4 IP (Once weekly), group mean): 720 mm^3
- Tumor Volume, individual mouse (Day 60, 0.191 mg/kg × 4 IP (Once weekly)): 83 mm^3 and 745 mm^3 and 783 mm^3 and 664 mm^3 and 854 mm^3 and 1234 mm^3 and 676 mm^3
- Tumor Volume, Mean (Day 64, 0.191 mg/kg × 4 IP (Once weekly), group mean): 747 mm^3
- Tumor Volume, individual mouse (Day 64, 0.191 mg/kg × 4 IP (Once weekly)): 82 mm^3 and 765 mm^3 and 788 mm^3 and 702 mm^3 and 920 mm^3 and 1272 mm^3 and 703 mm^3
- Tumor Volume, Mean (Day 67, 0.191 mg/kg × 4 IP (Once weekly), group mean): 818 mm^3
- Tumor Volume, individual mouse (Day 67, 0.191 mg/kg × 4 IP (Once weekly)): 79 mm^3 and 883 mm^3 and 827 mm^3 and 726 mm^3 and 1070 mm^3 and 1300 mm^3 and 840 mm^3
- Tumor Volume, Mean (Day 70, 0.191 mg/kg × 4 IP (Once weekly), group mean): 846 mm^3
- Tumor Volume, individual mouse (Day 70, 0.191 mg/kg × 4 IP (Once weekly)): 76 mm^3 and 943 mm^3 and 870 mm^3 and 726 mm^3 and 1090 mm^3 and 1358 mm^3 and 859 mm^3
- Tumor Volume, Mean (Day 74, 0.191 mg/kg × 4 IP (Once weekly), group mean): 901 mm^3
- Tumor Volume, individual mouse (Day 74, 0.191 mg/kg × 4 IP (Once weekly)): 74 mm^3 and 1012 mm^3 and 909 mm^3 and 856 mm^3 and 1117 mm^3 and 1422 mm^3 and 916 mm^3
- Tumor Volume, Mean (Day 78, 0.191 mg/kg × 4 IP (Once weekly), group mean): 931 mm^3
- Tumor Volume, individual mouse (Day 78, 0.191 mg/kg × 4 IP (Once weekly)): 74 mm^3 and 1042 mm^3 and 955 mm^3 and 890 mm^3 and 1197 mm^3 and 1431 mm^3 and 928 mm^3
- Tumor Volume, Mean (Day 81, 0.191 mg/kg × 4 IP (Once weekly), group mean): 951 mm^3
- Tumor Volume, individual mouse (Day 81, 0.191 mg/kg × 4 IP (Once weekly)): 77 mm^3 and 1064 mm^3 and 961 mm^3 and 903 mm^3 and 1197 mm^3 and 1517 mm^3 and 935 mm^3
- Tumor Volume, Mean (Day 85, 0.191 mg/kg × 4 IP (Once weekly), group mean): 1002 mm^3
- Tumor Volume, individual mouse (Day 85, 0.191 mg/kg × 4 IP (Once weekly)): 77 mm^3 and 1097 mm^3 and 1033 mm^3 and 933 mm^3 and 1331 mm^3 and 1558 mm^3 and 988 mm^3
- Tumor Volume, Mean (Day 88, 0.191 mg/kg × 4 IP (Once weekly), group mean): 1032 mm^3
- Tumor Volume, individual mouse (Day 88, 0.191 mg/kg × 4 IP (Once weekly)): 74 mm^3 and 1104 mm^3 and 1117 mm^3 and 933 mm^3 and 1346 mm^3 and 1626 mm^3 and 1023 mm^3
- Tumor Volume, Mean (Day 91, 0.191 mg/kg × 4 IP (Once weekly), group mean): 1037 mm^3
- Tumor Volume, individual mouse (Day 91, 0.191 mg/kg × 4 IP (Once weekly)): 72 mm^3 and 1122 mm^3 and 1130 mm^3 and 933 mm^3 and 1346 mm^3 and 1636 mm^3 and 1023 mm^3
- Tumor Volume, Mean (Day 95, 0.191 mg/kg × 4 IP (Once weekly), group mean): 1060 mm^3
- Tumor Volume, individual mouse (Day 95, 0.191 mg/kg × 4 IP (Once weekly)): 68 mm^3 and 1192 mm^3 and 1184 mm^3 and 947 mm^3 and 1354 mm^3 and 1646 mm^3 and 1029 mm^3
- Tumor Volume, Mean (Day 98, 0.191 mg/kg × 4 IP (Once weekly), group mean): 1101 mm^3
- Tumor Volume, individual mouse (Day 98, 0.191 mg/kg × 4 IP (Once weekly)): 68 mm^3 and 1215 mm^3 and 1265 mm^3 and 1061 mm^3 and 1398 mm^3 and 1656 mm^3 and 1043 mm^3
- Tumor Volume, Mean (Day 100, 0.191 mg/kg × 4 IP (Once weekly), group mean): 1106 mm^3
- Tumor Volume, individual mouse (Day 100, 0.191 mg/kg × 4 IP (Once weekly)): 62 mm^3 and 1254 mm^3 and 1273 mm^3 and 1076 mm^3 and 1444 mm^3 and 1590 mm^3 and 1043 mm^3
